Laboratory results: patent US9493506B2 (Enanta Pharmaceuticals, Inc., priority 2010, dated 2016)

Legend:
Assay type in all cases: cell-based, hepatitis C virus (genotype 1a-H77)
[1] = tested on: HCV replicon with a D168V mutation in a 1a-H77 background; assay: transient replicon assay, D168V mutation in 1a-H77 background; conditions: Hepatitis C virus, read-out: EC50 in a transient replicon assay with a D168V mutation in a 1a-H77 background
In short: (§1)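 Transient transfection of mutant replicon RNA (1a-H77 with NS2–NS5B, or 1b-N with NS3–NS5B plus E1202G/S2204I) by electroporation into IFN-cured Huh7 cells, plated at 7.5×10^3 cells per well in DMEM with 5% FBS. Serial compound dilutions added 4 h post-transfection (0.5% DMSO final).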

[2] = tested on: HCV replicon with a R155K mutation in a 1a-H77 background; assay: transient replicon assay, R155K mutation in 1a-H77 background; conditions: Hepatitis C virus, read-out: EC50 in a transient replicon assay with a R155K mutation in a 1a-H77 background
In short: as §1

[3] = tested on: HCV replicon with a D168E mutation in a 1a-H77 background; assay: transient replicon assay, D168E mutation in 1a-H77 background; conditions: Hepatitis C virus, read-out: EC50 in a transient replicon assay with a D168E mutation in a 1a-H77 background
In short: as §1

Row | Structure (SMILES) | EC50 [1] [µM] | EC50 [2] [µM] | EC50 [3] [µM]
1 | CC(C)(C)OC(=O)N[C@H]1CCCCC/C=C\[C@@H]2C[C@@]2(C(=O)NS(=O)(=O)C2(C)CC2)NC(=O)[C@@H]2C[C@@H](Oc3nc4c(F)cccc4nc3C(F)(F)F)CN2C1=O [Example 114, tert-butyl (2R,6S,13aS,14aR,16aS,Z)-2-(8-fluoro-3-(trifluoromethyl)quinoxalin-2-yloxy)-14a-(1-methylcyclopropylsulfonylcarbamoyl)-5,16-dioxo-1,2,3,5,6,7,8,9,10,11,13a,14,14a,15,16,16a-hexadecahydrocyclopropa[e]pyrrolo[1,2-a][1,4]diazacyclopentadecin-6-ylcarbamate] | 0.05 to 0.25 | < 0.001 | 0.003 to 0.02
2 | Cc1cc(C(=O)N[C@H]2CCCCC/C=C\[C@@H]3C[C@@]3(C(=O)NS(=O)(=O)C3(C)CC3)NC(=O)[C@@H]3C[C@@H](Oc4nc5c(F)cccc5nc4C(F)(F)F)CN3C2=O)no1 [Example 115, N-((2R,6S,13aS,14aR,16aS,Z)-2-(8-fluoro-3-(trifluoromethyl)quinoxalin-2-yloxy)-14a-(1-methylcyclopropylsulfonylcarbamoyl)-5,16-dioxo-1,2,3,5,6,7,8,9,10,11,13a,14,14a,15,16,16a-hexadecahydrocyclopropa[e]pyrrolo[1,2-a][1,4]diazacyclopentadecin-6-yl)-5-methylisoxazole-3-carboxamide] | < 0.025 | < 0.001 | < 0.003
3 | CC(C)(C)OC(=O)N[C@H]1CCCCC/C=C\[C@@H]2C[C@@]2(C(=O)NS(=O)(=O)C2CC2)NC(=O)[C@@H]2C[C@@H](Oc3nc4cc(F)ccc4nc3C(C)(F)F)CN2C1=O [Example 116, tert-butyl (2R,6S,13aS,14aR,16aS,Z)-14a-(cyclopropylsulfonylcarbamoyl)-2-(3-(1,1-difluoroethyl)-7-fluoroquinoxalin-2-yloxy)-5,16-dioxo-1,2,3,5,6,7,8,9,10,11,13a,14,14a,15,16,16a-hexadecahydrocyclopropa[e]pyrrolo[1,2-a][1,4]diazacyclopentadecin-6-ylcarbamate] | 0.025 to 0.05 | < 0.001 | 0.003 to 0.02
4 | CC(C)(C)OC(=O)N[C@H]1CCCCC/C=C\[C@@H]2C[C@@]2(C(=O)NS(=O)(=O)C2(C)CC2)NC(=O)[C@@H]2C[C@@H](Oc3nc4cc(F)ccc4nc3C(C)(F)F)CN2C1=O [Example 118, tert-butyl (2R,6S,13aS,14aR,16aS,Z)-2-(3-(1,1-difluoroethyl)-7-fluoroquinoxalin-2-yloxy)-14a-(1-methylcyclopropylsulfonylcarbamoyl)-5,16-dioxo-1,2,3,5,6,7,8,9,10,11,13a,14,14a,15,16,16a-hexadecahydrocyclopropa[e]pyrrolo[1,2-a][1,4]diazacyclopentadecin-6-ylcarbamate] | 0.25 to 1 | 0.001 to 0.01 | > 0.1
5 | Cc1onc(C(=O)N[C@H]2CCCCC/C=C\[C@@H]3C[C@@]3(C(=O)NS(=O)(=O)C3(C)CC3)NC(=O)[C@@H]3C[C@@H](Oc4nc5cc(F)ccc5nc4C(C)(F)F)CN3C2=O)c1C [Example 120, N-((2R,6S,13aS,14aR,16aS,Z)-2-(3-(1,1-difluoroethyl)-7-fluoroquinoxalin-2-yloxy)-14a-(1-methylcyclopropylsulfonylcarbamoyl)-5,16-dioxo-1,2,3,5,6,7,8,9,10,11,13a,14,14a,15,16,16a-hexadecahydrocyclopropa[e]pyrrolo[1,2-a][1,4]diazacyclopentadecin-6-yl)-4,5-methylisoxazole-3-carboxamide] | < 0.025 | < 0.001 | < 0.003
6 | CCc1nc2ccc(F)cc2nc1O[C@@H]1C[C@H]2C(=O)N[C@]3(C(=O)NS(=O)(=O)C4CC4)C[C@H]3/C=C\CCCCC[C@H](NC(=O)OC(C)(C)C)C(=O)N2C1 [Example 121, tert-butyl (2R,6S,13aS,14aR,16aS,Z)-14a-(cyclopropylsulfonylcarbamoyl)-2-(3-ethyl-7-fluoroquinoxalin-2-yloxy)-5,16-dioxo-1,2,3,5,6,7,8,9,10,11,13a,14,14a,15,16,16a-hexadecahydrocyclopropa[e]pyrrolo[1,2-a][1,4]diazacyclopentadecin-6-ylcarbamate] | 0.05 to 0.25 | 0.001 to 0.01 | 0.003 to 0.02
7 | CCc1nc2ccc(F)cc2nc1O[C@@H]1C[C@H]2C(=O)N[C@]3(C(=O)NS(=O)(=O)C4CC4)C[C@H]3/C=C\CCCCC[C@H](NC(=O)c3ccon3)C(=O)N2C1 [Example 122, N-((2R,6S,13aS,14aR,16aS,Z)-14a-(cyclopropylsulfonylcarbamoyl)-2-(3-ethyl-7-fluoroquinoxalin-2-yloxy)-5,16-dioxo-1,2,3,5,6,7,8,9,10,11,13a,14,14a,15,16,16a-hexadecahydrocyclopropa[e]pyrrolo[1,2-a][1,4]diazacyclopentadecin-6-yl)isoxazole-3-carboxamide] | 0.25 to 1 | 0.001 to 0.01 | 0.02 to 0.05
8 | CCc1nc2ccc(F)cc2nc1O[C@@H]1C[C@H]2C(=O)N[C@]3(C(=O)NS(=O)(=O)C4CC4)C[C@H]3/C=C\CCCCC[C@H](NC(=O)c3noc(C)c3C)C(=O)N2C1 [Example 123, N-((2R,6S,13aS,14aR,16aS,Z)-14a-(cyclopropylsulfonylcarbamoyl)-2-(3-ethyl-7-fluoroquinoxalin-2-yloxy)-5,16-dioxo-1,2,3,5,6,7,8,9,10,11,13a,14,14a,15,16,16a-hexadecahydrocyclopropa[e]pyrrolo[1,2-a][1,4]diazacyclopentadecin-6-yl)-4,5-dimethylisoxazole-3-carboxamide] | 0.05 to 0.25 | 0.001 to 0.01 | 0.003 to 0.02
9 | CCc1nc2ccc(F)cc2nc1O[C@@H]1C[C@H]2C(=O)N[C@]3(C(=O)NS(=O)(=O)C4CC4)C[C@H]3/C=C\CCCCC[C@H](NC(=O)c3cc(C)on3)C(=O)N2C1 [Example 124, N-((2R,6S,13aS,14aR,16aS,Z)-14a-(cyclopropylsulfonylcarbamoyl)-2-(3-ethyl-7-fluoroquinoxalin-2-yloxy)-5,16-dioxo-1,2,3,5,6,7,8,9,10,11,13a,14,14a,15,16,16a-hexadecahydrocyclopropa[e]pyrrolo[1,2-a][1,4]diazacyclopentadecin-6-yl)-5-methylisoxazole-3-carboxamide] | 0.05 to 0.25 | 0.001 to 0.01 | 0.02 to 0.05
10 | CCc1nc2ccc(F)cc2nc1O[C@@H]1C[C@H]2C(=O)N[C@]3(C(=O)NS(=O)(=O)C4(C)CC4)C[C@H]3/C=C\CCCCC[C@H](NC(=O)OC(C)(C)C)C(=O)N2C1 [Example 125, tert-butyl (2R,6S,13aS,14aR,16aS,Z)-2-(3-ethyl-7-fluoroquinoxalin-2-yloxy)-14a-(1-methylcyclopropylsulfonylcarbamoyl)-5,16-dioxo-1,2,3,5,6,7,8,9,10,11,13a,14,14a,15,16,16a-hexadecahydrocyclopropa[e]pyrrolo[1,2-a][1,4]diazacyclopentadecin-6-ylcarbamate] | 0.025 to 0.05 | < 0.001 | 0.003 to 0.02
11 | CCc1nc2ccc(F)cc2nc1O[C@@H]1C[C@H]2C(=O)N[C@]3(C(=O)NS(=O)(=O)C4(C)CC4)C[C@H]3/C=C\CCCCC[C@H](NC(=O)c3cc(C4CC4)on3)C(=O)N2C1 [Example 151, 5-cyclopropyl-N-((2R,6S,13aS,14aR,16aS,Z)-2-(3-ethyl-7-fluoroquinoxalin-2-yloxy)-14a-(1-methylcyclopropylsulfonylcarbamoyl)-5,16-dioxo-1,2,3,5,6,7,8,9,10,11,13a,14,14a,15,16,16a-hexadecahydrocyclopropa[e]pyrrolo[1,2-a][1,4]diazacyclopentadecin-6-yl)isoxazole-3-carboxamide] | < 0.025 | 0.001 to 0.01 | 0.003 to 0.02
12 | CCc1nc2cccc(F)c2nc1O[C@@H]1C[C@H]2C(=O)N[C@]3(C(=O)NS(=O)(=O)C4CC4)C[C@H]3/C=C\CCCCC[C@H](NC(=O)OC(C)(C)C)C(=O)N2C1 [Example 160, tert-butyl (2R,6S,13aS,14aR,16aS,Z)-14a-(cyclopropylsulfonylcarbamoyl)-2-(3-ethyl-8-fluoroquinoxalin-2-yloxy)-5,16-dioxo-1,2,3,5,6,7,8,9,10,11,13a,14,14a,15,16,16a-hexadecahydrocyclopropa[e]pyrrolo[1,2-a][1,4]diazacyclopentadecin-6-ylcarbamate] | 0.05 to 0.25 | 0.001 to 0.01 | 0.02 to 0.05
13 | CCc1nc2cccc(F)c2nc1O[C@@H]1C[C@H]2C(=O)N[C@]3(C(=O)NS(=O)(=O)C4CC4)C[C@H]3/C=C\CCCCC[C@H](NC(=O)c3ccon3)C(=O)N2C1 [Example 161, N-((2R,6S,13aS,14aR,16aS,Z)-14a-(cyclopropylsulfonylcarbamoyl)-2-(3-ethyl-8-fluoroquinoxalin-2-yloxy)-5,16-dioxo-1,2,3,5,6,7,8,9,10,11,13a,14,14a,15,16,16a-hexadecahydrocyclopropa[e]pyrrolo[1,2-a][1,4]diazacyclopentadecin-6-yl)isoxazole-3-carboxamide] | 0.05 to 0.25 | 0.001 to 0.01 | 0.003 to 0.02
14 | CCc1nc2cccc(F)c2nc1O[C@@H]1C[C@H]2C(=O)N[C@]3(C(=O)NS(=O)(=O)C4CC4)C[C@H]3/C=C\CCCCC[C@H](NC(=O)c3cc(C)on3)C(=O)N2C1 [Example 162, N-((2R,6S,13aS,14aR,16aS,Z)-14a-(cyclopropylsulfonylcarbamoyl)-2-(3-ethyl-8-fluoroquinoxalin-2-yloxy)-5,16-dioxo-1,2,3,5,6,7,8,9,10,11,13a,14,14a,15,16,16a-hexadecahydrocyclopropa[e]pyrrolo[1,2-a][1,4]diazacyclopentadecin-6-yl)-5-methylisoxazole-3-carboxamide] | 0.05 to 0.25 | 0.001 to 0.01 | 0.003 to 0.02
